Test results taken from patent US9403850B2, “Beta-lactamase inhibitors” (priority 2013, dated 2016).

Columns and labels:
VIM-2 = biological target: T1, VIM-2 (Escherichia coli, UniProt Q5U7L7); test: β-Lactamase enzyme inhibition assay, VIM-2 (nitrocefin substrate); format: biochemical; conditions: nitrocefin substrate 100 μM, 15 min preincubation at 37° C.; read-out: IC50, Class B VIM-2
T1 construct: made in house; host or cells: E. coli BL21(DE3)
Experimental: For Vim-2 metallo β-lactamase, the procedure was identical with the following exceptions, first the protein was not pH adjusted to pH 5 with 50 mM sodium acetate, second, the chromatography step was changed to a 5 ml Q sepharose anion exchange column pre-equilibrated with 50 mM Hepes pH 7.5, and elution of the protein was achieved by a linear gradient of NaCl (0-600 mM). Finally, the VIM-2 purification required a second run (3rd step) on the Q sepharose anion exchange column to achieve acceptable purity (>90%).
An equal volume of diluted enzyme stock was added, and the plates were incubated at 37° C. for 15 min. Nitrocefin was used as substrate for p99 AmpC, VIM-2 and OXA-1 and dispensed into each well at a final concentration of 100 μM. Absorbance at 486 nm was immediately monitored for 10 min using a Biotek Powerwave XS2 microplate spectrophotometer using the GEN5 softweare package (Biotek Instruments, Winooski Vt.). In an analogous fashion, imipenem was used as substrate for Kpc-2 and Cefotaxime was used for SHV-5, while changes in absorbance upon hydrolysis of the β-lactam ring were monitored at 300 nm and 260 nm respectively in UV-transparent 96-well microtiter assay plates. Maximum rates of hydrolysis were compared to those in control wells (without inhibitors), and percentages of enzyme inhibition were calculated for each concentration of inhibitor. The concentration of inhibitor needed to reduce the initial rate of hydrolysis of substrate by 50% (IC50) was calculated as the residual activity of β-lactamase at 486 nm using GraFit version 7 kinetics software package (Erithacus Software, Surrey, UK).
Using the methodology described above, examples of the current invention were evaluated for their ability to inhibit β-lactamase enzymes from all four Ambler classifications (A through D). […] NT=Not tested.

[1] = tested on: E. coli ESBL4 expressing CTX-M-15; test: Broth microdilution MIC assay, partner ceftazidime;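 further: ceftazidime held fixed at 4 µg/mL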; format: cell-based; conditions: Escherichia coli, read-out: MIC of Exemplary Compounds in presence of fixed β-lactams, Fixed CAZ, E. coli ESBL4 CTX-M-15
[2] = tested on: E. cloacae 144200 expressing Class C P99 AmpC; test: Broth microdilution MIC assay, partner ceftazidime;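 further: ceftazidime held fixed at 4 µg/mL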; format: cell-based; conditions: Enterobacter cloacae, read-out: MIC of Exemplary Compounds in presence of fixed β-lactams, Fixed CAZ, E. cl. 144200 p99 AmpC
[3] = tested on: K. pneumoniae 156319 expressing KPC-3; test: Broth microdilution MIC assay, partner meropenem; format: cell-based; conditions: Klebsiella pneumoniae, read-out: MIC of Exemplary Compounds in presence of fixed β-lactams, Fixed Mero, K.P. 156319 KPC-3
[4] = tested on: P. aeruginosa Ps296 expressing VIM-2; test: Broth microdilution MIC assay, partner meropenem; format: cell-based; conditions: Pseudomonas aeruginosa, read-out: MIC of Exemplary Compounds in presence of fixed β-lactams, Fixed Mero, P. aerug. Ps296 VIM-2
[5] = tested on: K. pneumoniae A-1797 expressing KPC-2 and VIM-4; test: Broth microdilution MIC assay, partner meropenem; format: cell-based; conditions: Klebsiella pneumoniae, read-out: MIC of Exemplary Compounds in presence of fixed β-lactams, Fixed Mero, K.P. A-1797 KPC-2 VIM-4
[6] = tested on: S. aureus MSSA-7 producing penicillinase PC-1; test: Broth microdilution MIC assay, partner piperacillin; format: cell-based; conditions: Staphylococcus aureus, fixed piperacillin 4 μg/mL, read-out: MIC of Exemplary Compounds in presence of fixed β-lactams, Fixed Pip, S. aureus MSSA-7 PC-1

`NC1=NCc2ccc(C(=O)N[C@H]3Cc4cccc(C(=O)O)c4OB3O)cc2CN1` [Example 17, (R)-3-(3-amino-4,5-dihydro-1H-benzo[e][1,3]diazepine-7-carboxamido)-2-hydroxy-3,4-dihydro-2H-benzo[e][1,2]oxaborinine-8-carboxylic acid] gave an IC50 (VIM-2) of less than 0.1 µM, an MIC [1] of less than 4 µg/mL and an MIC [2] of less than 4 µg/mL. It also gave an MIC [3] of less than 4 µg/mL, an MIC [4] of 8 to 32 µg/mL and an MIC [5] of less than 4 µg/mL. For the same compound, the MIC [6] was less than 4 µg/mL.

In the case of `CN(C)Cc1ccc(C(=O)N[C@H]2Cc3cccc(C(=O)O)c3OB2O)cc1N` [Example 18, (R)-3-(3-amino-4-((dimethylamino)methyl)benzamido)-2-hydroxy-3,4-dihydro-2H-benzo[e][1,2]oxaborinine-8-carboxylic acid], the IC50 (VIM-2) is reported as 0.1 to 1 µM, the MIC [1] is reported as less than 4 µg/mL and the MIC [2] is reported as less than 4 µg/mL. It also gave an MIC [3] of less than 4 µg/mL, an MIC [4] of less than 4 µg/mL and an MIC [5] of less than 4 µg/mL. For the same compound, the MIC [6] was less than 4 µg/mL.

Work on `CNCc1ccc(C(=O)N[C@H]2Cc3cccc(C(=O)O)c3OB2O)cc1CNC` [Example 19, (R)-3-(3,4-bis((methylamino)methyl)benzamido)-2-hydroxy-3,4-dihydro-2H-benzo[e][1,2]oxaborinine-8-carboxylic acid] yielded an IC50 (VIM-2) of less than 0.1 µM, an MIC [1] of less than 4 µg/mL and an MIC [2] of less than 4 µg/mL. For the same compound, the MIC [3] was less than 4 µg/mL, the MIC [4] was less than 4 µg/mL and the MIC [5] was less than 4 µg/mL. The MIC [6] was less than 4 µg/mL.

`NCc1ccc(CC(=O)N[C@H]2Cc3cccc(C(=O)O)c3OB2O)cc1CN` [Example 20, (R)-3-(2-(3,4-bis(aminomethyl)phenyl)acetamido)-2-hydroxy-3,4-dihydro-2H-benzo[e][1,2]oxaborinine-8-carboxylic acid] was tested, and the IC50 (VIM-2) was less than 0.1 µM, the MIC [1] was less than 4 µg/mL and the MIC [2] was less than 4 µg/mL. It also gave an MIC [3] of less than 4 µg/mL, an MIC [4] of less than 4 µg/mL and an MIC [5] of less than 4 µg/mL. The MIC [6] was less than 4 µg/mL.

`CN(C)Cc1ccc(C(=O)N[C@H]2Cc3cccc(C(=O)O)c3OB2O)cc1NC(=O)[C@@H](N)CN` [Example 21, (R)-3-(3-((S)-2,3-diaminopropanamido)-4-((dimethylamino)methyl)benzamido)-2-hydroxy-3,4-dihydro-2H-benzo[e][1,2]oxaborinine-8-carboxylic acid] was tested, and the IC50 (VIM-2) was less than 0.1 µM, the MIC [1] was less than 4 µg/mL and the MIC [2] was less than 4 µg/mL. The MIC [3] was 8 to 32 µg/mL, the MIC [4] was greater than 32 µg/mL and the MIC [5] was 8 to 32 µg/mL. The MIC [6] was 8 to 32 µg/mL.

With `Cc1ccc(C(=O)N[C@H]2Cc3cccc(C(=O)O)c3OB2O)cc1NC(=O)[C@@H](N)CN` [Example 22, (R)-3-(3-((S)-2,3-diaminopropanamido)-4-methylbenzamido)-2-hydroxy-3,4-dihydro-2H-benzo[e][1,2]oxaborinine-8-carboxylic acid] the IC50 (VIM-2) was 0.1 to 1 µM, the MIC [1] was less than 4 µg/mL and the MIC [2] was less than 4 µg/mL. For the same compound, the MIC [3] was less than 4 µg/mL, the MIC [4] was greater than 32 µg/mL and the MIC [5] was 8 to 32 µg/mL. It also gave an MIC [6] of less than 4 µg/mL.

`Cc1ccc(C(=O)N[C@H]2Cc3cccc(C(=O)O)c3OB2O)cc1N` [Example 23, (R)-3-(3-amino-4-methylbenzamido)-2-hydroxy-3,4-dihydro-2H-benzo[e][1,2]oxaborinine-8-carboxylic acid] was tested, and the IC50 (VIM-2) was 0.1 to 1 µM, the MIC [1] was less than 4 µg/mL and the MIC [2] was less than 4 µg/mL. It also gave an MIC [3] of less than 4 µg/mL, an MIC [4] of 8 to 32 µg/mL and an MIC [5] of 8 to 32 µg/mL. It also gave an MIC [6] of less than 4 µg/mL.

`O=C(N[C@H]1Cc2cccc(C(=O)O)c2OB1O)c1ccc(-c2ccccn2)cc1` [Example 24, (R)-2-hydroxy-3-(4-(pyridin-2-yl)benzamido)-3,4-dihydro-2H-benzo[e][1,2]oxaborinine-8-carboxylic acid] showed an IC50 (VIM-2) of 0.1 to 1 µM, an MIC [1] of less than 4 µg/mL and an MIC [2] of less than 4 µg/mL. The MIC [3] was 8 to 32 µg/mL, the MIC [4] was 8 to 32 µg/mL and the MIC [5] was 8 to 32 µg/mL. The MIC [6] was less than 4 µg/mL.

`N=C(N)NCc1ccc(C(=O)N[C@H]2Cc3cccc(C(=O)O)c3OB2O)cc1CNC(=N)N` [Example 25, (R)-3-(3,4-bis(guanidinomethyl)benzamido)-2-hydroxy-3,4-dihydro-2H-benzo[e][1,2]oxaborinine-8-carboxylic acid] gave an IC50 (VIM-2) of less than 0.1 µM, an MIC [1] of less than 4 µg/mL and an MIC [2] of less than 4 µg/mL. It also gave an MIC [3] of less than 4 µg/mL, an MIC [4] of less than 4 µg/mL and an MIC [5] of less than 4 µg/mL. For the same compound, the MIC [6] was less than 4 µg/mL.

With `O=C(N[C@H]1Cc2cccc(C(=O)O)c2OB1O)c1ccc2[nH]ccc2c1` [Example 26, (R)-2-hydroxy-3-(1H-indole-5-carboxamido)-3,4-dihydro-2H-benzo[e][1,2]oxaborinine-8-carboxylic acid] the IC50 (VIM-2) was 0.1 to 1 µM, the MIC [1] was less than 4 µg/mL and the MIC [2] was less than 4 µg/mL. The MIC [3] was less than 4 µg/mL, the MIC [4] was 8 to 32 µg/mL and the MIC [5] was 8 to 32 µg/mL. It also gave an MIC [6] of less than 4 µg/mL.

In the case of `O=C(N[C@H]1Cc2cccc(C(=O)O)c2OB1O)c1ccc(-c2ccncc2)cc1` [Example 27, (R)-2-hydroxy-3-(4-(pyridin-4-yl)benzamido)-3,4-dihydro-2H-benzo[e][1,2]oxaborinine-8-carboxylic acid], the IC50 (VIM-2) is reported as 1 to 10 µM, the MIC [1] is reported as less than 4 µg/mL and the MIC [2] is reported as less than 4 µg/mL. It also gave an MIC [3] greater than 32 µg/mL, an MIC [4] greater than 32 µg/mL and an MIC [5] greater than 32 µg/mL. The MIC [6] was less than 4 µg/mL.

For `O=C(N[C@H]1Cc2cccc(C(=O)O)c2OB1O)c1ccc2ncccc2c1` [Example 28, (R)-2-hydroxy-3-(quinoline-6-carboxamido)-3,4-dihydro-2H-benzo[e][1,2]oxaborinine-8-carboxylic acid], the IC50 (VIM-2) was 1 to 10 µM, the MIC [1] was less than 4 µg/mL and the MIC [2] was less than 4 µg/mL. It also gave an MIC [3] of less than 4 µg/mL, an MIC [4] greater than 32 µg/mL and an MIC [5] of 8 to 32 µg/mL. For the same compound, the MIC [6] was less than 4 µg/mL.

For `O=C(N[C@H]1Cc2cccc(C(=O)O)c2OB1O)c1ccc2nccnc2c1` [Example 29, (R)-2-hydroxy-3-(quinoxaline-6-carboxamido)-3,4-dihydro-2H-benzo[e][1,2]oxaborinine-8-carboxylic acid], the IC50 (VIM-2) was 1 to 10 µM, the MIC [1] was less than 4 µg/mL and the MIC [2] was less than 4 µg/mL. For the same compound, the MIC [3] was less than 4 µg/mL, the MIC [4] was greater than 32 µg/mL and the MIC [5] was greater than 32 µg/mL. It also gave an MIC [6] of less than 4 µg/mL.

With `O=C(N[C@H]1Cc2cccc(C(=O)O)c2OB1O)c1ccc2cc[nH]c2c1` [Example 30, (R)-2-hydroxy-3-(1H-indole-6-carboxamido)-3,4-dihydro-2H-benzo[e][1,2]oxaborinine-8-carboxylic acid] the IC50 (VIM-2) was 0.1 to 1 µM, the MIC [1] was less than 4 µg/mL and the MIC [2] was less than 4 µg/mL. For the same compound, the MIC [3] was less than 4 µg/mL, the MIC [4] was less than 4 µg/mL and the MIC [5] was 8 to 32 µg/mL. For the same compound, the MIC [6] was less than 4 µg/mL.

`O=C(O)c1cccc2c1OB(O)[C@@H](NC(=O)c1cccc3cc[nH]c13)C2` [Example 31, (R)-2-hydroxy-3-(1H-indole-7-carboxamido)-3,4-dihydro-2H-benzo[e][1,2]oxaborinine-8-carboxylic acid] showed an IC50 (VIM-2) of 1 to 10 µM, an MIC [1] of less than 4 µg/mL and an MIC [2] of less than 4 µg/mL. It also gave an MIC [3] of less than 4 µg/mL, an MIC [4] of 8 to 32 µg/mL and an MIC [5] greater than 32 µg/mL. For the same compound, the MIC [6] was less than 4 µg/mL.

With `O=C(O)c1cccc2c1OB(O)[C@@H](NC(=O)c1cccc3[nH]ccc13)C2` [Example 32, (R)-2-Hydroxy-3-[(1H-indole-4-carbonyl)-amino]-3,4-dihydro-2H-benzo[e][1,2]oxaborinine-8-carboxylic acid] the IC50 (VIM-2) was 0.1 to 1 µM, the MIC [1] was less than 4 µg/mL and the MIC [2] was less than 4 µg/mL. It also gave an MIC [3] of less than 4 µg/mL, an MIC [4] of less than 4 µg/mL and an MIC [5] greater than 32 µg/mL. It also gave an MIC [6] of less than 4 µg/mL.

`O=C1Cc2cc(C(=O)N[C@H]3Cc4cccc(C(=O)O)c4OB3O)ccc2N1` [Example 33, (R)-2-Hydroxy-3-[(2-oxo-2,3-dihydro-1H-indole-5-carbonyl)-amino]-3,4-dihydro-2H-benzo[e][1,2]oxaborinine-8-carboxylic acid] showed an IC50 (VIM-2) of 0.1 to 1 µM, an MIC [1] of less than 4 µg/mL and an MIC [2] of less than 4 µg/mL. For the same compound, the MIC [3] was less than 4 µg/mL, the MIC [4] was less than 4 µg/mL and the MIC [5] was 8 to 32 µg/mL. The MIC [6] was less than 4 µg/mL.

With `O=C(N[C@H]1Cc2cccc(C(=O)O)c2OB1O)c1ccc2nc[nH]c2c1` [Example 34, (R)-3-[(3H-Benzoimidazole-5-carbonyl)-amino]-2-hydroxy-3,4-dihydro-2H-benzo[e][1,2]oxaborinine-8-carboxylic acid] the IC50 (VIM-2) was 0.1 to 1 µM, the MIC [1] was less than 4 µg/mL and the MIC [2] was less than 4 µg/mL. It also gave an MIC [3] of less than 4 µg/mL, an MIC [4] of less than 4 µg/mL and an MIC [5] of 8 to 32 µg/mL. For the same compound, the MIC [6] was less than 4 µg/mL.
